Source: ChEMBL document CHEMBL4342407, “Thieno[2,3-d]pyrimidine as a promising scaffold in medicinal chemistry: Recent advances” (Bioorg Med Chem, 2019)
pIC50: −log10 of the molar value. ≈ marks a conversion by molar mass, not a printed value.

Legend:
[1] = tested on: Aspergillus niger; assay: Antifungal activity against Aspergillus niger incubated for 24 to 72 hrs by Serial dilution method; type: functional
[2] = tested on: Escherichia coli; assay: Antibacterial activity against Escherichia coli assessed as diameter of zone inhibition at 0.5% incubated for 24 hrs by stiff plate agar diffusion method; type: functional
[3] = tested on: Aspergillus niger; assay: Antifungal activity against Aspergillus niger assessed as diameter of zone inhibition at 0.5% incubated for 24 hrs by stiff plate agar diffusion method; type: functional
[4] = tested on: Aspergillus niger; assay: Antifungal activity against Aspergillus niger assessed as diameter of zone inhibition at 0.1% incubated for 24 hrs by stiff plate agar diffusion method; type: functional
[5] = tested on: Bacillus subtilis; assay: Antibacterial activity against Bacillus subtilis ATCC 6633 assessed as diameter of zone inhibition at 100 ug/ml; type: functional; settings: read-out: DIZ
[6] = tested on: Escherichia coli; assay: Antibacterial activity against Escherichia coli ATCC 25922 assessed as diameter of zone inhibition at 100 ug/ml; type: functional; settings: read-out: DIZ
[7] = tested on: Staphylococcus aureus; assay: Antibacterial activity against Staphylococcus aureus ATCC 25923 assessed as diameter of zone inhibition at 100 ug/ml; type: functional; settings: read-out: DIZ
[8] = tested on: Escherichia coli; assay: Antibacterial activity against Escherichia coli ATCC 25922 assessed as diameter of zone inhibition at 30 ug/ml; type: functional; settings: read-out: DIZ
[9] = tested on: Bacillus subtilis; assay: Antibacterial activity against Bacillus subtilis ATCC 6633 assessed as diameter of zone inhibition at 30 ug/ml; type: functional; settings: read-out: DIZ
[10] = tested on: Staphylococcus aureus; assay: Antibacterial activity against Staphylococcus aureus ATCC 25923 assessed as diameter of zone inhibition at 30 ug/ml; type: functional; settings: read-out: DIZ
[11] = tested on: Candida albicans; assay: Antifungal activity against Candida albicans ATCC 653/885 assessed as diameter of zone inhibition at 30 ug/ml; type: functional; settings: read-out: DIZ
[12] = tested on: HepG2; assay: Antiproliferative activity against human HepG2 after 24 hrs by MTT assay; type: functional, cell-based; settings: HepG2, 24 h
[13] = Inhibition of PTK (unknown origin) using poly-Glu-Tyr (PGT) as substrate by ELISA; parameters: species or system Homo sapiens
[14] = tested on: MCF7; assay: Antiproliferative activity against human MCF7 after 24 hrs by MTT assay; type: functional, cell-based; settings: MCF7, 24 h
[15] = tested on: HeLa; assay: Antiproliferative activity against human HeLa after 24 hrs by MTT assay; type: functional, cell-based
[16] = tested on: PC-3; assay: Antiproliferative activity against human PC3 after 24 hrs by MTT assay; type: functional, cell-based; settings: PC-3, 24 h
[17] = tested on: HEp-2; assay: Antiproliferative activity against human Hep2 after 24 hrs by MTT assay; type: functional, cell-based; settings: HEp-2, 24 h
[18] = tested on: HCT-116; assay: Antiproliferative activity against human HCT116 after 48 hrs by MTT assay; type: functional; settings: HCT-116, 48 h
[19] = tested on: A549; assay: Antiproliferative activity against human A549 after 48 hrs by MTT assay; type: functional; settings: A549, 48 h
[20] = tested on: MDA-MB-453; assay: Antiproliferative activity against human MDA-MB-453 after 48 hrs by MTT assay; type: functional; settings: MDA-MB-453, 48 h
[21] = tested on: HT-29; assay: Antiproliferative activity against human HT-29 after 48 hrs by MTT assay; type: functional; settings: HT-29, 48 h
[22] = tested on: HCT-15; assay: Antiproliferative activity against human HCT15 after 48 hrs by MTT assay; type: functional; settings: HCT-15, 48 h
[23] = tested on: BT-549; assay: Antiproliferative activity against human BT549 after 48 hrs by MTT assay; type: functional; settings: BT-549, 48 h
[24] = tested on: MCF7; assay: Antiproliferative activity against human MCF7 after 48 hrs by MTT assay; type: functional; settings: MCF7, 48 h
[25] = tested on: DU-145; assay: Antiproliferative activity against human DU145 after 48 hrs by MTT assay; type: functional; settings: DU-145, 48 h
[26] = tested on: Rattus norvegicus; assay: Antiinflammatory activity in Sprague-Dawley rat assessed as inhibition of carrageenan-induced edema at 10 mg/kg, po pretreated for 1 hr followed by carrageenan challenge and measured after 4 hrs by mercury plethysmometer relative to control; type: functional
[27] = tested on: HCT-116; assay: Antiproliferative activity against human HCT116 after 18 hrs by MTT assay; type: functional, cell-based; settings: HCT-116, 18 h
[28] = tested on: MCF7; assay: Antiproliferative activity against human MCF7 after 18 hrs by MTT assay; type: functional, cell-based; settings: MCF7, 18 h
[29] = tested on: A549; assay: Antiproliferative activity against human A549 after 18 hrs by MTT assay; type: functional, cell-based; settings: A549, 18 h
[30] = tested on: Rhodococcus fascians; assay: Antibacterial activity against Mycobacterium luteum assessed as diameter of zone inhibition at 0.5% incubated for 24 hrs by stiff plate agar diffusion method; type: functional, Rhodococcoides fascians
[31] = tested on: Staphylococcus aureus; assay: Antibacterial activity against Staphylococcus aureus assessed as diameter of zone inhibition at 0.5% incubated for 24 hrs by stiff plate agar diffusion method; type: functional

CCCCCc1sc2nc[nH]c(=[Se])c2c1CCCCC
MIC [1]: 31.2 µg/mL (≈ 87.8 µM)
diameter of the inhibition zone (DIZ) [2]: 14 mm
diameter of the inhibition zone (DIZ) [3]: 22 mm
diameter of the inhibition zone (DIZ) [4]: 12 mm

Cc1sc2nc[nH]c(=[Se])c2c1C
diameter of the inhibition zone (DIZ) [2]: 14.7 mm
diameter of the inhibition zone (DIZ) [3]: 12 mm

Cc1c(-c2nnc(-c3ccccc3)o2)sc2c1c(=O)n(-c1ccccc1)c(=O)n2Cc1nc(-c2ccccc2)no1
zone of inhibition at 100 µg/mL [5]: 17 mm
zone of inhibition at 100 µg/mL [6]: 14 mm
zone of inhibition at 100 µg/mL [7]: 15 mm

Cc1ncc([N+](=O)[O-])n1CCO [METRONIDAZOLE]
zone of inhibition at 30 µg/mL [8]: 14 mm
zone of inhibition at 30 µg/mL [9]: 16 mm
zone of inhibition at 30 µg/mL [10]: 14 mm
zone of inhibition at 30 µg/mL [11]: 14 mm

COc1cc(/C=C/C(=O)c2sc3nc(S)n(-c4ccccc4)c(=O)c3c2C)cc(OC)c1OC
pIC50 [12]: 4.69
pIC50 [13]: 3.69
pIC50 [14]: 4.77
pIC50 [15]: 4.89
pIC50 [16]: 4.79
pIC50 [17]: 4.66

Cc1c(-c2nnc(-c3ccccc3)o2)sc2c1c(=O)n(-c1ccccc1)c(=O)n2Cc1nc(-c2ccccc2Cl)no1
zone of inhibition at 100 µg/mL [5]: 17 mm
zone of inhibition at 100 µg/mL [6]: 14 mm
zone of inhibition at 100 µg/mL [7]: 15 mm

CCOC(=O)CSc1ncnc2sc(CC)c(CC)c12
MIC [1]: 31.2 µg/mL (≈ 101 µM)

Cc1ccc(/C=C/C(=O)c2sc3nc(S)n(-c4ccccc4)c(=O)c3c2C)cc1
pIC50 [12]: 5.10
pIC50 [13]: 3.87
pIC50 [14]: 5.16
pIC50 [15]: 5.37
pIC50 [16]: 5.11
pIC50 [17]: 5.27

O=C(/C=C/c1cccc(C(F)(F)F)c1)Nc1cccc(Nc2ncnc3sccc23)c1
GI50 [18]: 5.8 µM
GI50 [19]: 4.6 µM
GI50 [20]: 0.9 µM
GI50 [21]: > 10 µM
GI50 [22]: 5.1 µM
GI50 [23]: 3.1 µM
GI50 [24]: 0.8 µM
GI50 [25]: 5.4 µM

COc1ccc2c(c1)c(CC(=O)O)c(C)n2C(=O)c1ccc(Cl)cc1 [INDOMETHACIN]
inhibition in vivo at 10 mg/kg [26]: 49.1%

Cc1ccc(-c2cc(COc3ncnc4sc(C)cc34)on2)cc1
pIC50 [27]: 4.27
pIC50 [28]: 4.87
pIC50 [29]: 3.84

Cc1c(-c2nnc(-c3ccccc3)o2)sc2c1c(=O)n(-c1ccccc1)c(=O)n2Cc1nc(-c2ccc(Cl)cc2)no1
zone of inhibition at 100 µg/mL [5]: 17 mm
zone of inhibition at 100 µg/mL [6]: 14 mm
zone of inhibition at 100 µg/mL [7]: 15 mm

CN[C@@H]1[C@H](O[C@H]2[C@H](O[C@H]3[C@H](O)[C@@H](O)[C@H](N=C(N)N)[C@@H](O)[C@@H]3N=C(N)N)O[C@@H](C)[C@]2(O)C=O)O[C@@H](CO)[C@H](O)[C@H]1O [STREPTOMYCIN]
zone of inhibition at 30 µg/mL [8]: 16 mm
zone of inhibition at 30 µg/mL [9]: 17 mm
zone of inhibition at 30 µg/mL [10]: 15 mm

CCc1sc2ncnc(SCC(=O)NS(=O)(=O)c3ccc(Cl)cc3)c2c1CC
diameter of the inhibition zone (DIZ) [30]: 17 mm
diameter of the inhibition zone (DIZ) [31]: 12 mm
